We go through four compounds from US20060142204A1, “Pyrrolidine derivatives for use in treating heaptitis c virus infection” (GENOSCIENCE, priority 2002, published 2006).

Where two headings read alike, the source gives them in different places. Non-standard residues stand in square brackets, D forms with d. Residues, ends and D or L forms follow the SMILES beside them. *: point of attachment. dGla = N[C@H](CC(C(=O)O)C(=O)O)C(=O)O; Hyp = O=C(O)[C@@H]1C[C@@H](O)CN1; Cha = N[C@@H](CC1CCCCC1)C(=O)O; Abu = CC[C@H](N)C(=O)O; tBu = CC(C)(C)*

One data set concerns HCV. The data set is described as follows: HCV replication in primary cultures of human hepatocytes infected in vitro. Type of data set: cell-based, HCV genotype 3 (serum S183) in human hepatocytes. The settings on record: 1 μM of compound; hepatocyte cultures FT200, FT201, FT203; 5 days; FIG. 5. The procedure: More particularly, the in vitro primary cultures of human hepatocytes were prepared as follows: hepatocytes were prepared from liver tissue resected from donors who tested negative for HCV, and inoculation was performed 3 days after plating with 33 HCV serum samples of different virus load and genotype. The presence of intracellular HCV RNA, detected by a strand-specific rTth RT-PCR assay, was used as evidence of infection. […] At day 5, the copy level of viral RNA was estimated to be amplified at least 15-fold in infected cells. […] This model represents therefore a valuable tool for the study of initial steps of the HCV replication cycle and for the evaluation of antiviral molecules.
The basic protocol was as follows: 1) human hepatocytes extracted from liver lobectomies of HCV-negative patients were cultured in the long-term culture system mentioned above; 2) cells were then infected in vitro with an aliquot of serum from HCV-positive patients; 3) after a few days of culture (1 to 14 days), cellular RNA was extracted and analyzed for HCV RNA (+) and (−) strands using a highly specific rtTh. […]
RNA was extracted and analyzed using: first, rtTh RT-PCR and agarose gel electrophoresis (control of the presence of the replicative strand); and second, quantitative RT-PCR using (a) the genomic strand of HCV, and (b) GAPDH RNA/GAPDH RNA as an internal control. […]

Data set [1] concerns the target full-length NS3/NS4A complex (Hepatitis C virus genotype 1a, UniProt P27958). As to the kind of experiment: biochemical. The source says: Operating Method for HCV NS3-4A Activity Assay:
Inhibition data were obtained on the full-length NS3/NS4A complex. […] A summary of the NS3 protease activity assay is described bellow.
We used the full-length NS4A-NS3 protease and a recombinant EGPF-NS5A/B-CBD fusion protein serving as a fluorescent substrate for the determination of the compounds activity.
The fluorogenic substrate was built in three parts: a Green fluorescent protein (EGFP), a peptide corresponding to the NS5A-NS5B junctions ([…]) and a Cellulose Binding Domain (CBD). The NS5A/B is the more efficiently cleavage site for NS3 than at other cleavage site of HCV polyprotein (references 15). After cleavage reaction of EGFP-NS5A/B-CBD by NS3, the un-cleaved substrate and the C-terminal domain of cleaved substrate are fixed on cellulose. After centrifugation, the released free EGFP-NS5A was quantified by fluorometry.
The inhibitors were tested in triplicate in each experiment. The inhibitor was pre-incubated with the NS3 enzyme (50 nM final concentration) for 5 minutes at 37° C. The substrate was added (100 nM final concentration) and incubated at 37° C. for 40 minutes. Then, the reaction mixture was transferred into an Eppendorf containing 5 mg of pre-equilibrated cellulose with reaction buffer 1× and agitated at room temperature for 10 minutes followed by centrifugation for 5 min at 13000 rpm. The supernatant (100 μL) containing liberated green fluorescent protein was transferred to a black 96 well plate and data was collected by a fluorometer (excitation λ=485 nm, and emission λ=538 nm). For each black 96 well plate the control of the activity and inhibition of NS3 protease, fluorescence background noise and the measure of the total fluorescence were performed. The fluorogenic substrate EGFP-NS5A/B-CBD at 100 nM final concentration was incubated with NS3 protease at 50 nM final concentration for the control of the NS3 activity. The inhibitors Ac-Asp-D-Gla-Leu-Ile-β-cyclohexyl-Ala-Cys-OH (CHAC), (references 16) PMSF and TPCK were used at various concentrations to validate the inhibition of NS3 protease reaction. The fluorescence background noise was obtained with the fluorogenic substrate EGFP-NS5A/B-CBD at 100 nM, and the control of the maximum fluorescence was obtained with the fluorogenic substrate EGFP-NS5A/B-CBD at 100 nM without the step of the fixation on pre-equilibrated cellulose.

Another data set relates to four different strains. As to the kind of experiment: ames test. As to conditions: with or without metabolic activation. The text has this: The compounds of the present invention present the advantage to be non bactericidal and/or non mutagenic. The ames test with four different strains, with or without metabolic activation, has been carried out with the above cited compounds (in particular, compound 5). The results thereof have shown that the compounds above identified (in particular, compound 5) are non mutagenic.

[2] abbreviates: enzyme 50 nM, substrate 100 nM, 37° C., 40 minutes, read-out: NS3 IC50.

Chain of full-length NS3/NS4A complex (P27958 1027-1657): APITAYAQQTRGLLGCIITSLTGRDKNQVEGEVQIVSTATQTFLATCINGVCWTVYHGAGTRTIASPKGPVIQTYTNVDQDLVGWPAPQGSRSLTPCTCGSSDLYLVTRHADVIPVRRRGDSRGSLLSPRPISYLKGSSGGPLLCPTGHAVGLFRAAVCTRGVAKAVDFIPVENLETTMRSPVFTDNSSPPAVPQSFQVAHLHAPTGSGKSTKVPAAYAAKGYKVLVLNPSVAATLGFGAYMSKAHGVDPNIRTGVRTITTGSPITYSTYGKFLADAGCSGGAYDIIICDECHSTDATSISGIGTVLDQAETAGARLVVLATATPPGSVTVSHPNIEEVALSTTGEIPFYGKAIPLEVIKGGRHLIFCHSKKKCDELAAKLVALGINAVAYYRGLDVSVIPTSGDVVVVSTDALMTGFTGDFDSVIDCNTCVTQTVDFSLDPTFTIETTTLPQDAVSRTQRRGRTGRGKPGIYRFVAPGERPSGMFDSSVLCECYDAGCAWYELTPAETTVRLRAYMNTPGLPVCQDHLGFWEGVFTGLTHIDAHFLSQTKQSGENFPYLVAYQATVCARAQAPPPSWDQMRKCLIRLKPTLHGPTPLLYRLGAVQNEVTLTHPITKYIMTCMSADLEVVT
Chain of full-length NS3/NS4A complex (P27958 1658-1711): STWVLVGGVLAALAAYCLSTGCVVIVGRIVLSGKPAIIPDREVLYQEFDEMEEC

A word on the IC50: it is the point on the concentration scale where inhibition reaches its midpoint. Regarding `CC(C)(C)OC(=O)N[C@@H](CCC(=O)O)C(=O)N1C[C@H](OC(C)(C)C)C[C@H]1C(=O)NC(CC(F)(F)F)C(=O)O` (stereo partly drawn) [Compound 5], the “Inhibitory effect expressed as the ratio HCV RNA/GAPDH RNA” value in the data set on HCV is on record as “significant inhibitory effect”. Also, the IC50 in data set [1] (setting [2]) is 150 µM. Further, the “mutagenicity (ames test)” value in the data set with four different strains is reported as “non mutagenic”.

In the case of `CC[C@H](C)[C@H](NC(=O)[C@H](CC(C)C)NC(=O)[C@@H](CC(C(=O)O)C(=O)O)NC(=O)[C@H](CC(=O)O)NC(C)=O)C(=O)N[C@@H](CC1CCCCC1)C(=O)N[C@@H](CS)C(=O)O` [CHAC, Ac-Asp-D-Gla-Leu-Ile-β-cyclohexyl-Ala-Cys-OH, reference compound] (Ac-D[dGla]LI[Cha]C-OH), the IC50 in data set [1] stood at 0.04 µM. On the same count and under the same terms, the result for `Cc1ccc(S(=O)(=O)NC(Cc2ccccc2)C(=O)CCl)cc1` [TPCK, L-1-4′-Tosylamino-2-phenylethyl chloromethyl ketone, reference compound] reads 900 µM. Turning to `CC[C@H](NC(=O)[C@@H]1C[C@@H](OC(C)(C)C)CN1C(=O)[C@@H](NC(C)=O)C(C)C)C(=O)O` [Compound 18] (Ac-Val-[Hyp](tBu)-[Abu]-OH), the IC50 in data set [1] (setting [2]) amounted to 30 µM.
